Laboratory results from ChEMBL document CHEMBL4477199, “Design and synthesis of novel bicalutamide and enzalutamide derivatives as antiproliferative agents for the treatment of prostate cancer” (Eur J Med Chem, 2016).

Key:
CWR22R = assay: Antiproliferative activity against human 22Rv1 cells after 96 hrs by propidium iodide staining based fluorescence 2D monolayer assay; assay type: functional, cell-based; conditions: 22Rv1, 96 h
VCaP = assay: Antiproliferative activity against human VCaP cells after 96 hrs by propidium iodide staining based fluorescence 2D monolayer assay; assay type: functional, cell-based
[1] = 96 h
Description: Solubility in RPMI1640 culture medium at <30 uM incubated for 4 days by microscopic analysis

DU-145 = assay: Antiproliferative activity against human DU145 cells after 96 hrs by propidium iodide staining based fluorescence 2D monolayer assay; assay type: functional, cell-based; conditions: DU-145, 96 h
LNCaP = assay: Antiproliferative activity against human LNCAP cells after 96 hrs by propidium iodide staining based fluorescence 2D monolayer assay; assay type: functional, cell-based
[2] = 33000 µM
Description: Solubility in 100% DMSO at 33 mM at -20 degC

Row | SMILES | IC50 (CWR22R) | IC50 (VCaP) | solubility [1] | IC50 (DU-145) | IC50 (LNCaP) | solubility [2]
1 | CC(O)(COc1cccc(OC(F)(F)F)c1)C(=O)Nc1ccc(C#N)c(C(F)(F)F)c1 (centres undefined) | 9.79 µM | 9.91 µM | Soluble | 16.4 µM | 9.83 µM | Soluble
2 | CC(O)(CS(=O)(=O)c1ccc(F)c(F)c1)C(=O)Nc1ccc([N+](=O)[O-])cc1C(F)(F)F (centres undefined) | 33.6 µM | 37.3 µM | Soluble | 48.1 µM | 19.5 µM | Soluble
3 | CC(O)(CSc1cccc(C(F)(F)F)c1)C(=O)Nc1ccc(C#N)cc1C(F)(F)F (centres undefined) | 15.2 µM | 23.5 µM | Soluble | 21.1 µM | 11.3 µM | Soluble
4 | CC(O)(COc1ccc(F)c(F)c1)C(=O)Nc1ccc([N+](=O)[O-])c(C(F)(F)F)c1 (centres undefined) | 18.5 µM | 18.9 µM | Soluble | 21.6 µM | 14.5 µM | Soluble
5 | CC(O)(CSc1ccc(C(F)(F)F)cc1)C(=O)Nc1ccc([N+](=O)[O-])cc1C(F)(F)F (centres undefined) | 14.6 µM | 17.1 µM | Soluble | 19.2 µM | 8.66 µM | Soluble
6 | CC(O)(COc1ccc(F)cc1F)C(=O)Nc1ccc(C#N)c(C(F)(F)F)c1 (centres undefined) | 34 µM | 38.7 µM | Soluble | 44.3 µM | 37.3 µM | Soluble
7 | CC(O)(CS(=O)(=O)c1ccc(C(F)(F)F)cc1)C(=O)Nc1ccc(C#N)cc1C(F)(F)F (centres undefined) | 27.9 µM | 43.3 µM | Soluble | 44.6 µM | 32.9 µM | Soluble
8 | CC(O)(CS(=O)(=O)c1cccc(OC(F)(F)F)c1)C(=O)Nc1ccc([N+](=O)[O-])cc1C(F)(F)F (centres undefined) | 18 µM | 20.3 µM | Soluble | 27.7 µM | 12.2 µM | Soluble
9 | CC1(C)C(=O)N(c2cccc(C(F)(F)F)c2)C(=O)N1c1ccc(C#N)cc1C(F)(F)F | 59.3 µM | 100 µM | Soluble | 100 µM | 18.3 µM | Soluble
10 | CC(O)(CS(=O)(=O)c1ccc(F)cc1)C(=O)Nc1ccc([N+](=O)[O-])cc1C(F)(F)F (centres undefined) | 46.7 µM | 58.2 µM | Soluble | 60.7 µM | 38.6 µM | Soluble
11 | CC(O)(CSc1cccc(C(F)(F)F)c1)C(=O)Nc1ccc(C(F)(F)F)cc1 (centres undefined) | 18.6 µM | 19.5 µM | Soluble | 30.7 µM | 22.6 µM | Soluble
12 | CC(O)(CSc1ccc(OC(F)(F)F)cc1)C(=O)Nc1ccc([N+](=O)[O-])cc1C(F)(F)F (centres undefined) | 61.9 µM | 100 µM | Soluble | 69.6 µM | 100 µM | Soluble
13 | CC(O)(COc1ccc(F)c(F)c1)C(=O)Nc1ccc(C#N)c(C(F)(F)F)c1 (centres undefined) | 35.5 µM | 25.6 µM | Soluble | 45.2 µM | 19 µM | Soluble
14 | CC(O)(COc1ccc(C(F)(F)F)cn1)C(=O)Nc1ccc([N+](=O)[O-])c(C(F)(F)F)c1 (centres undefined) | 35.2 µM | 100 µM | Soluble | 100 µM | 36.5 µM | Soluble
15 | CC1(C)C(=O)N(c2cccc(C(F)(F)F)c2)C(=O)N1c1ccc([N+](=O)[O-])c(C(F)(F)F)c1 | 100 µM | 100 µM | Soluble | 100 µM | 15.2 µM | Soluble
16 | CC(O)(CSc1cc(C(F)(F)F)ccn1)C(=O)Nc1ccc([N+](=O)[O-])cc1C(F)(F)F (centres undefined) | 11.5 µM | 17.4 µM | Soluble | 14 µM | 5.52 µM | Soluble
17 | CC(O)(COc1ccc(C(F)(F)F)cc1)C(=O)Nc1ccc([N+](=O)[O-])c(C(F)(F)F)c1 (centres undefined) | 16.2 µM | 10.9 µM | Soluble | 25.9 µM | 17.2 µM | Soluble
18 | CC(O)(CSc1ccc(F)cc1)C(=O)Nc1ccc([N+](=O)[O-])cc1C(F)(F)F (centres undefined) | 17.6 µM | 21.1 µM | Soluble | 26.4 µM | 11.9 µM | Soluble
19 | CC(O)(COc1ccccc1C(F)(F)F)C(=O)Nc1ccc(C#N)cc1C(F)(F)F (centres undefined) | 19.6 µM | 21.9 µM | Soluble | 33.2 µM | 14 µM | Soluble
20 | CC(O)(CSc1ccccc1C(F)(F)F)C(=O)Nc1ccc(C(F)(F)F)cc1 (centres undefined) | 5.2 µM | 5.86 µM | Soluble | 8.76 µM | 7.22 µM | Soluble

Row | SMILES | IC50 (CWR22R) | IC50 (VCaP) | solubility [1] | IC50 (DU-145) | IC50 (LNCaP) | solubility [2]
21 | CC(O)(CSc1ccc(F)c(F)c1)C(=O)Nc1ccc([N+](=O)[O-])cc1C(F)(F)F (centres undefined) | 83.6 µM | 100 µM | Soluble | 100 µM | 83 µM | Soluble
22 | CC(O)(COc1ccc(OC(F)(F)F)cc1)C(=O)Nc1ccc(C#N)cc1C(F)(F)F (centres undefined) | 28 µM | 22.4 µM | Soluble | 34.6 µM | 27.7 µM | Soluble
23 | CC(O)(CSc1cccc(C(F)(F)F)c1)C(=O)Nc1ccc([N+](=O)[O-])cc1C(F)(F)F (centres undefined) | 12.6 µM | 16.5 µM | Soluble | 14.3 µM | 10.1 µM | Soluble
24 | CC(O)(CSc1ccc(C(F)(F)F)cn1)C(=O)Nc1ccc(C#N)c(C(F)(F)F)c1 (centres undefined) | 53.9 µM | 89.3 µM | Soluble | 84.1 µM | 80.7 µM | Soluble
25 | CC1(C)C(=O)N(c2cccc(C(F)(F)F)c2)C(=O)N1c1ccc(C(F)(F)F)cc1 | 92.5 µM | 100 µM | Soluble | 100 µM | 16.6 µM | Soluble
26 | CC(O)(COc1ccc(C#N)cc1)C(=O)Nc1ccc([N+](=O)[O-])c(C(F)(F)F)c1 (centres undefined) | 30.9 µM | 26.9 µM | Soluble | 32.7 µM | 18.7 µM | Soluble
27 | CC(O)(CSc1ccc(C(F)(F)F)cn1)C(=O)Nc1ccc([N+](=O)[O-])cc1C(F)(F)F (centres undefined) | 13.6 µM | 17.2 µM | Soluble | 19.7 µM | 11.1 µM | Soluble
28 | CC(O)(CS(=O)(=O)c1ccc(C(F)(F)F)cn1)C(=O)Nc1ccc([N+](=O)[O-])cc1C(F)(F)F (centres undefined) | 100 µM | 100 µM | Soluble | 100 µM | 100 µM | Soluble
29 | CC(O)(CS(=O)(=O)c1cccc(C(F)(F)F)c1)C(=O)Nc1ccc(C#N)cc1C(F)(F)F (centres undefined) | 34.4 µM | 44.9 µM | Soluble | 45.9 µM | 32.1 µM | Soluble
30 | C[C@](O)(CS(=O)(=O)c1ccc(F)cc1)C(=O)Nc1ccc(C#N)cc1C(F)(F)F | 100 µM | 100 µM | Soluble | 100 µM | 85.5 µM | Soluble
31 | CC(O)(CS(=O)(=O)c1ccccc1OC(F)(F)F)C(=O)Nc1ccc([N+](=O)[O-])cc1C(F)(F)F (centres undefined) | 28.8 µM | 51.7 µM | Soluble | 39 µM | 17.8 µM | Soluble
32 | CC(O)(COc1cccc(OC(F)(F)F)c1)C(=O)Nc1ccc(C#N)cc1C(F)(F)F (centres undefined) | 28.7 µM | 56.3 µM | Soluble | 35.9 µM | 63.4 µM | Soluble
33 | CC(O)(CSc1cccc(OC(F)(F)F)c1)C(=O)Nc1ccc([N+](=O)[O-])cc1C(F)(F)F (centres undefined) | 15.8 µM | 15.9 µM | Soluble | 21.6 µM | 9.15 µM | Soluble
34 | CC(O)(CS(=O)(=O)c1ccccc1C(F)(F)F)C(=O)Nc1ccc(C#N)c(C(F)(F)F)c1 (centres undefined) | 46.6 µM | 58.6 µM | Soluble | 55 µM | 42.7 µM | Soluble
35 | CC(O)(CS(=O)(=O)c1ccc(F)cc1)C(=O)Nc1ccc(C#N)cc1C(F)(F)F (centres undefined) | 77 µM | 65.2 µM | Soluble | 100 µM | 91.6 µM | Soluble
36 | CC1(C)C(=O)N(c2ccc(C(F)(F)F)cc2)C(=O)N1c1cccc(C(F)(F)F)c1 | 100 µM | 72.4 µM | Soluble | 100 µM | 5.95 µM | Soluble
37 | C[C@](O)(CS(=O)(=O)c1ccc(F)cc1F)C(=O)Nc1ccc(C#N)c(C(F)(F)F)c1 | 42.2 µM | 60.9 µM | Soluble | 60.2 µM | 42.3 µM | Soluble
38 | CC(O)(CSc1ccccc1C(F)(F)F)C(=O)Nc1ccc(C#N)cc1C(F)(F)F (centres undefined) | 11.6 µM | 18.3 µM | Soluble | 18.4 µM | 10.7 µM | Soluble
39 | CC(O)(CSc1cccc(OC(F)(F)F)c1)C(=O)Nc1ccc(C(F)(F)F)cc1 (centres undefined) | 15.9 µM | 18.8 µM | Soluble | 27.8 µM | 13.9 µM | Soluble
